# Data published in the supplement of paper PMC5908809.
# Legend:
# [1] = tested on: normal primary NK cells, pool 3 (3 donors) (IL-2 2.5 ng/mL); assay: drug sensitivity score (DSS) (DSS units); higher = more sensitive; extreme values may be limits of the assay; settings: 72 h
# IMC-1 (IL-2 20 ng/mL) [2] = assay: as above; settings: 72 h
# [3] = tested on: normal primary NK cells, pool 2 (3 donors) (IL-2 2.5 ng/mL); assay: as above; settings: 72 h
# [4] = tested on: normal NK cells expanded with K562-aAPC; assay: as above; settings: 72 h; IL-2 2.5 ng/mL
# Protocol: (§1)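 Drug sensitivity and resistance testing on K562-aAPC-expanded normal NK cells: 5 concentrations (10-fold steps over a 10,000-fold range), 72 h at 37 °C, viability by CellTiter-Glo normalised to DMSO and benzethonium chloride controls; DSS from the fitted curve.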
# [5] = tested on: normal NK cells expanded with K562-aAPC; assay: percent inhibition of viability; higher = more inhibition; settings: 72 h, IL-2 2.5 ng/mL
# Protocol: as §1
# [6] = tested on: normal primary NK cells, pool 3 (3 donors) (IL-2 2.5 ng/mL); assay: as above; settings: 72 h
# IMC-1 (IL-2 20 ng/mL) [7] = assay: as above; settings: 72 h
# [8] = tested on: normal primary NK cells, pool 2 (3 donors) (IL-2 2.5 ng/mL); assay: as above; settings: 72 h
SMILES,drug sensitivity score [1],drug sensitivity score (IMC-1 (IL-2 20 ng/mL) [2]),drug sensitivity score [3],drug sensitivity score [4],percent inhibition of viability ([5]; 1 nM) [%],percent inhibition of viability ([5]; 10 nM) [%],percent inhibition of viability ([5]; 100 nM) [%],percent inhibition of viability ([5]; 1000 nM) [%],percent inhibition of viability ([6]; 1 nM) [%],percent inhibition of viability ([6]; 10 nM) [%],percent inhibition of viability ([6]; 100 nM) [%],percent inhibition of viability ([6]; 1000 nM) [%],percent inhibition of viability (IMC-1 (IL-2 20 ng/mL) [7]; 1 nM) [%],percent inhibition of viability (IMC-1 (IL-2 20 ng/mL) [7]; 10 nM) [%],percent inhibition of viability (IMC-1 (IL-2 20 ng/mL) [7]; 100 nM) [%],percent inhibition of viability (IMC-1 (IL-2 20 ng/mL) [7]; 1000 nM) [%],percent inhibition of viability ([8]; 1 nM) [%],percent inhibition of viability ([8]; 10 nM) [%],percent inhibition of viability ([8]; 100 nM) [%],percent inhibition of viability ([8]; 1000 nM) [%],also measured
CON(C)C(=O)N1N=C(c2cc(F)ccc2F)S[C@@]1(CCCN)c1ccccc1 [Filanesib] (max concentration tested 1000 nM),0,30.5,0,18.2,2.85,56.5,56.8,56.8,0.04,1.29,2.17,-3.73,0.61,99.5,100,99.5,4.01,3.31,2.78,0.91,percent inhibition of viability ([5]; 0.1 nM): 5.43%; percent inhibition of viability ([6]; 0.1 nM): -8.61%; percent inhibition of viability (IMC-1 (IL-2 20 ng/mL) [7]; 0.1 nM): 0.48%; percent inhibition of viability ([8]; 0.1 nM): -10.4%
CCCCCCCCCCCCCCCCCCOP(=O)([O-])OC1CC[N+](C)(C)CC1 [Perifosine] (max concentration tested 2500 nM),0,0.06,0,0.73,–,–,–,–,–,–,–,–,–,–,–,–,–,–,–,–,percent inhibition of viability ([5]; 0.25 nM): -10.4%; percent inhibition of viability ([5]; 2.5 nM): -4.12%; percent inhibition of viability ([5]; 25 nM): -6.08%; percent inhibition of viability ([5]; 250 nM): 9.36%; percent inhibition of viability ([5]; 2500 nM): 14%; percent inhibition of viability ([6]; 0.25 nM): -6.26%; percent inhibition of viability ([6]; 2.5 nM): -5.2%; percent inhibition of viability ([6]; 25 nM): 0.44%; percent inhibition of viability ([6]; 250 nM): 3.24%; percent inhibition of viability ([6]; 2500 nM): 9.26%; percent inhibition of viability (IMC-1 (IL-2 20 ng/mL) [7]; 0.25 nM): -3.43%; percent inhibition of viability (IMC-1 (IL-2 20 ng/mL) [7]; 2.5 nM): -7.43%; percent inhibition of viability (IMC-1 (IL-2 20 ng/mL) [7]; 25 nM): 0.31%; percent inhibition of viability (IMC-1 (IL-2 20 ng/mL) [7]; 250 nM): 2.67%; percent inhibition of viability (IMC-1 (IL-2 20 ng/mL) [7]; 2500 nM): 10.9%; percent inhibition of viability ([8]; 0.25 nM): -4.58%; percent inhibition of viability ([8]; 2.5 nM): -3.48%; percent inhibition of viability ([8]; 25 nM): -0.26%; percent inhibition of viability ([8]; 250 nM): 4.53%; percent inhibition of viability ([8]; 2500 nM): 7.26%
CCN(c1cc(-c2ccc(CN3CCOCC3)cc2)cc(C(=O)NCc2c(C)cc(C)[nH]c2=O)c1C)C1CCOCC1 [Tazemetostat] (max concentration tested 10000 nM),0,0,0,0,-1.54,2.17,-0.28,10.4,-4.31,-2.24,8.29,-7.9,-6.56,0.55,-2.13,1.66,-7.19,-1.07,5.71,-5.28,percent inhibition of viability ([5]; 10000 nM): 0.84%; percent inhibition of viability ([6]; 10000 nM): 0.75%; percent inhibition of viability (IMC-1 (IL-2 20 ng/mL) [7]; 10000 nM): 2.45%; percent inhibition of viability ([8]; 10000 nM): 7.6%
N.N.[Cl][Pt][Cl] [Cisplatin] (max concentration tested 100000 nM),9.04,27.8,8.93,14.1,–,2.08,1.39,16.1,–,-4.27,1.37,-2.08,–,0.88,-0.16,84.2,–,-10.5,-3.22,-1.72,percent inhibition of viability ([5]; 10000 nM): 62.8%; percent inhibition of viability ([5]; 100000 nM): 99.8%; percent inhibition of viability ([6]; 10000 nM): 24%; percent inhibition of viability ([6]; 100000 nM): 96.7%; percent inhibition of viability (IMC-1 (IL-2 20 ng/mL) [7]; 10000 nM): 100%; percent inhibition of viability (IMC-1 (IL-2 20 ng/mL) [7]; 100000 nM): 100%; percent inhibition of viability ([8]; 10000 nM): 25.3%; percent inhibition of viability ([8]; 100000 nM): 92.7%
CC(C)n1nc(-c2ccc3oc(N)nc3c2)c2c(N)ncnc21 [MLN-0128] (max concentration tested 1000 nM),3.64,0.2,8.27,9.64,-1.99,18,40.5,44.1,0.85,15.6,13.5,35.5,-1.34,-16.7,-30.3,19.6,4.32,23.5,28,36.7,percent inhibition of viability ([5]; 0.1 nM): -6.08%; percent inhibition of viability ([6]; 0.1 nM): -6.15%; percent inhibition of viability (IMC-1 (IL-2 20 ng/mL) [7]; 0.1 nM): -2.42%; percent inhibition of viability ([8]; 0.1 nM): -8.27%
CCN(CC)CCCC(C)Nc1ccnc2cc(Cl)ccc12 (stereo not drawn) [Chloroquine] (max concentration tested 100000 nM),11.8,5.31,9.79,14.2,–,-7.98,-8.65,-3.82,–,-6.29,3.82,7.92,–,-9.53,-2.15,-3.29,–,-5.74,2.44,3.84,percent inhibition of viability ([5]; 10000 nM): 76%; percent inhibition of viability ([5]; 100000 nM): 101%; percent inhibition of viability ([6]; 10000 nM): 52.1%; percent inhibition of viability ([6]; 100000 nM): 101%; percent inhibition of viability (IMC-1 (IL-2 20 ng/mL) [7]; 10000 nM): -3.07%; percent inhibition of viability (IMC-1 (IL-2 20 ng/mL) [7]; 100000 nM): 99.8%; percent inhibition of viability ([8]; 10000 nM): 28.9%; percent inhibition of viability ([8]; 100000 nM): 101%
c1cc(CN2CCCNCCNCCCNCC2)ccc1CN1CCCNCCNCCCNCC1 [Plerixafor] (max concentration tested 10000 nM),0,0.01,0,0,-8.84,-11.8,-6.04,-7.74,-11.8,-3.1,-2.77,-16.3,-6.62,-2.25,-2.63,-6.11,-13.2,-6.73,-6.7,-15,percent inhibition of viability ([5]; 10000 nM): -11.7%; percent inhibition of viability ([6]; 10000 nM): -17.5%; percent inhibition of viability (IMC-1 (IL-2 20 ng/mL) [7]; 10000 nM): 12%; percent inhibition of viability ([8]; 10000 nM): -10.7%
